From US6800672B2, “Biodegradable compositions comprising poly(cycloaliphatic phosphoester) compounds, articles, and methods for using the same” (Guilford Pharmaceuticals, Inc., priority 1997, dated 2004)
“And” between values parts separate entries of the source, which are not always exact repeats. Equal values may be shown once. Where a name gives a salt, the structure may show the parent alone. Read-outs that look alike come from different tables or passages of the source.

Experiments:
[1] = test system: melanoma cell line B16/F10 tumors
[2] = test system: melanoma cell line B16/F10; assay: Drug sensitivity in an in vitro tumor model; type: cell-based; details: vs cisplatin and 5-FU, even at 0.1 μg/mL
From the text: The B16/F10 cells were cultivated in the presence of different concentrations of DOX, cisplatin and 5-FU.

Structure (SMILES)	Number of Mice Survived, 28 days ([1]; mouse, in vivo)	early death after injection ([1]; mouse, in vivo)	Number of Mice Survived, 42 days ([1]; mouse, in vivo, hydrochloride)	Tumor Volume After Tumor Injection, 28 days ([1]; treatment injected Day 3 (3d))	Tumor Volume After Tumor Injection, 42 days ([1]; treatment injected Day 3 (3d))	Tumor Volume After Tumor Injection, 28 days ([1]; treatment injected Day 7 (7d))	Tumor Volume After Tumor Injection, 42 days ([1]; treatment injected Day 7 (7d))	inhibitory effect on the cell culture [2]
COc1cccc2c1C(=O)c1c(O)c3c(c(O)c1C2=O)C[C@@](O)(C(=O)CO)C[C@@H]3O[C@H]1C[C@H](N)[C@H](O)[C@H](C)O1 [Bolus Dox, doxorubicin hydrochloride]	8	did not produce early death	5 and 3	1218.9 ± 304.1 mm^3	3942.5 ± 1818 mm^3	1661.2 ± 301.8 mm^3	4394.3 ± 741.3 mm^3	
COc1cccc2c1C(=O)c1c(O)c3c(c(O)c1C2=O)C[C@@](O)(C(=O)CO)C[C@@H]3O[C@H]1C[C@H](N)[C@H](O)[C@H](C)O1 [DOX, doxorubicin]								strongest inhibitory effect
